Reference: patent US9067905B2, “Sulphone compounds and methods of making and using same” (Zafgen, Inc., priority 2009, dated 2015)
Counter-ions that a name gives are not always drawn.

Each compound was assayed against T1, recombinant human MetAP2 (Homo sapiens, UniProt P50579) (assay: Inhibition of recombinant human MetAP2 activity (Amplex red fluorescence assay)). Conditions: manganese Flag-MetAP2, 0.75 mM Methionine-Alanine-Serine substrate, 30 minutes at 25° C., pH 7.5, 1% DMSO.
T1 construct: Flag; made in house; host or cells: Sf9 insect cells
T1 sequence (P50579 whole entry): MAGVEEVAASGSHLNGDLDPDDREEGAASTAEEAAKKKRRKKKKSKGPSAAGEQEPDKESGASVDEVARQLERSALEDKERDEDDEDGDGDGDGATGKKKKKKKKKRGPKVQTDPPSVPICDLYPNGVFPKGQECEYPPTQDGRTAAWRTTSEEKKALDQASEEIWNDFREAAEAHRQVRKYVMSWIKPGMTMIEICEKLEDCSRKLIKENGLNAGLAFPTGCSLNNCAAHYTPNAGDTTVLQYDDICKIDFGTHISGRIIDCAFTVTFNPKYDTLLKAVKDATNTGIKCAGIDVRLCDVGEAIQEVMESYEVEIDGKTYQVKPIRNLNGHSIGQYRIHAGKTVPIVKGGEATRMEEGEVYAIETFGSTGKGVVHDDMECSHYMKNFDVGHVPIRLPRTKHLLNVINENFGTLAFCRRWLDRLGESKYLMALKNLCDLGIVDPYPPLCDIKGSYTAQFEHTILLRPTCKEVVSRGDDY
Assay type: biochemical
Protocol: Compounds are tested for their capacity to inhibit recombinant human MetAP2 activity using the following assay.
Human recombinant Flag-MetAP2 expressed in Sf9 cells followed by affinity purification and EDTA treatment to remove endogenous active site cation is dialysed against MnCl2 to produce the manganese enzyme used in the assay. The assay is carried out for 30 minutes at 25° C. in 50 mM HEPES buffer containing 100 mM NaCl, pH 7.5 the presence of 0.75 mM Methionine-Alanine-Serine (MAS) substrate and 50 μg/ml amino acid oxidase using a dilution of purified MetAP2 giving approximately 50,000 RFU control activity. Cleavage of the substrate by MetAP2 and oxidation of free methionine by amino acid oxidase is detected and quantified using fluorescence generated by Amplex red (10-acetyl-3,7-dihydroxyphenoxazine) in combination with horseradish peroxidase which detects H2O2 released during the oxidation step. The fluorescent signal is detected using a multiwell fluorimeter. Compounds are diluted in DMSO prior to addition to assay buffer, the final DMSO concentration in the assay being 1%.
The IC50 is defined as the concentration at which a given compound achieves 50% inhibition of control. IC50 values are calculated using the XLfit software package (version 2.0.5).

Structure (SMILES)	IC50
COc1c(-c2cnsc2)ccc(CS(=O)(=O)c2ccccc2)c1C(=O)O [6-(Benzenesulphonylmethyl)-3-(isothiazol-4-yl)-2-methoxybenzoic acid]	200 to 2000 nM
CCc1ccc(CS(=O)(=O)c2ccccc2)c(C(=O)O)c1OC [6-(Benzenesulphonylmethyl)-3-ethyl-2-methoxy-benzoic acid]	200 to 2000 nM
COc1c(-c2ccoc2)ccc(CS(=O)(=O)c2cccc(O)c2)c1C(=O)O [3-(Furan-3-yl)-6-(3-hydroxybenzenesulphonylmethyl)-2-methoxy-benzoic acid]	200 to 2000 nM
COc1c(-c2ccoc2)ccc(CS(=O)(=O)c2ccccn2)c1C(=O)O [3-(Furan-3-yl)-2-methoxy-6-(pyridin-2-ylsulphonylmethyl)benzoic acid]	< 200 nM
CCc1ccc(CS(=O)(=O)c2ccccc2)c(C(=O)O)c1OCCN [2-(2-Aminoethoxy)-3-ethyl-6-benzenesulphonylmethylbenzoic acid hydrochloride]	< 200 nM
COc1c(C#N)ccc(CS(=O)(=O)c2ccccc2)c1C(=O)O [6-(Benzenesulphonylmethyl)-3-cyano-2-methoxy-benzoic acid]	> 2000 nM
COc1cccc(CS(=O)(=O)c2ccccc2C)c1C(=O)O [2-Methoxy-6-(2-methylbenzenesulphonylmethyl)benzoic acid]	> 2000 nM
CN(C)CCOc1c(-c2ccoc2)ccc(CS(=O)(=O)c2ccccc2)c1C(=O)O [6-(Benzenesulphonylmethyl)-2-(2-dimethylaminoethoxy)-3-(3-furanyl)benzoic acid hydrochloride]	> 2000 nM
O=C(O)c1cc(-c2cnco2)ccc1CS(=O)(=O)c1ccccc1 [2-(Benzenesulphonylmethyl)-5-(oxazol-5-yl)benzoic acid]	> 2000 nM
NCCCc1c(-c2ccoc2)ccc(CS(=O)(=O)c2ccccc2)c1C(=O)O [2-(3-Aminopropyl)-6-(benzenesulphonylmethyl)-3-(furan-3-yl)-benzoic acid hydrochloride]	> 2000 nM
CC(N)COc1c(-c2ccoc2)ccc(CS(=O)(=O)c2ccccc2)c1C(=O)O (stereo not drawn) [2-(2-Aminopropoxy)-6-(benzenesulphonylmethyl)-3-(furan-3-yl)-benzoic acid hydrochloride]	> 2000 nM
CCN(CC)CCOc1ccccc1S(=O)(=O)Cc1ccc(-c2ccoc2)c(OC)c1C(=O)O [6-[2-(2-Diethylaminoethoxy)benzenesulphonylmethyl]-3-(furan-3-yl)-2-methoxybenzoic acid]	> 2000 nM
CCN(CC)C/C=C/c1ccccc1S(=O)(=O)Cc1ccc(-c2ccoc2)c(OC)c1C(=O)O [(E)-6-((2-(3-(diethylamino)prop-1-enyl)benzenesulfonyl)methyl)-3-(furan-3-yl)-2-methoxybenzoic acid]	200 to 2000 nM
COc1c(-c2cccs2)ccc(CS(=O)(=O)c2ccccc2)c1C(=O)O [6-(Benzenesulphonylmethyl)-2-methoxy-3-(thien-2-yl)benzoic acid]	> 2000 nM
COc1c(-c2cocn2)ccc(CS(=O)(=O)c2ccccc2)c1C(=O)O [6-(Benzenesulphonylmethyl)-3-(oxazol-4-yl)-2-methoxybenzoic acid]	> 2000 nM
COc1c(-c2ccoc2)ccc(CS(=O)(=O)c2ccccc2)c1C(=O)O [6-(Benzenesulphonylmethyl)-3-(furan-3-yl)-2-methoxy-benzoic acid]	< 200 nM
COc1c(-c2ccco2)ccc(CS(=O)(=O)c2ccccc2)c1C(=O)O [6-(Benzenesulphonylmethyl)-3-(furan-2-yl)-2-methoxy-benzoic acid]	> 2000 nM
COc1c(-c2ccoc2)ccc(CS(=O)(=O)N2CCC(F)(F)CC2)c1C(=O)O [6-(4,4-Difluoropiperidine-1-ylsulphonylmethyl)-3-(furan-3-yl)-2-methoxybenzoic acid]	< 200 nM
NCCCOc1c(-c2ccoc2)ccc(CS(=O)(=O)c2ccccc2)c1C(=O)O [2-(3-Aminopropoxy)-6-(benzenesulphonylmethyl)-3-(furan-3-yl)benzoic acid hydrochloride]	200 to 2000 nM
CCc1ccc(C[S+]([O-])c2ccccc2)c(C(=O)O)c1OC (stereo not drawn) [6-(Benzenesulphinylmethyl)-3-ethyl-2-methoxy-benzoic acid]	> 2000 nM
COc1c(-c2cnco2)ccc(CS(=O)(=O)c2ccccc2)c1C(=O)O [6-(Benzenesulphonylmethyl)-2-methoxy-3-(oxazol-5-yl)benzoic acid]	200 to 2000 nM
CNc1c(-c2ccoc2)ccc(CS(=O)(=O)c2ccccc2)c1C(=O)O [6-(Benzenesulphonylmethyl)-3-(furan-3-yl)-2-methylamino benzoic acid]	< 200 nM
CCOc1c(-c2ccoc2)ccc(CS(=O)(=O)c2ccccc2)c1C(=O)O [6-(Benzenesulphonylmethyl)-2-ethoxy-3-(furan-3-yl)benzoic acid]	200 to 2000 nM

Structure (SMILES)	IC50
COc1c(-c2ccoc2)ccc(CS(=O)(=O)c2ccccc2F)c1C(=O)O [6-(2-Fluorobenzenesulphonylmethyl)-3-(furan-3-yl)-2-methoxybenzoic acid]	200 to 2000 nM
CCc1ccc(CS(=O)(=O)c2ccccc2C)c(C(=O)O)c1OC [3-Ethyl-2-methoxy-6-(2-methylbenzenesulphonylmethyl)benzoic acid]	200 to 2000 nM
COc1c(C)ccc(CS(=O)(=O)c2ccccc2)c1C(=O)O [6-(Benzenesulphonylmethyl)-2-methoxy-3-methyl-benzoic acid]	200 to 2000 nM
CN=S(=O)(Cc1ccc(-c2ccoc2)c(OC)c1C(=O)O)c1ccccc1 (stereo not drawn) [3-(Furan-3-yl)-2-methoxy-6-[(N-methyl-S-phenylsulphonimidoyl)methyl]benzoic acid]	200 to 2000 nM
Cn1nccc1-c1ccc(CS(=O)(=O)c2ccccc2)c(C(=O)O)c1 [2-(Benzenesulphonylmethyl)-5-(2-methyl-2H-pyrazol-3-yl)benzoic acid]	> 2000 nM
CCc1c(-c2ccoc2)ccc(CS(=O)(=O)c2ccccc2)c1C(=O)O [6-(Benzenesulphonylmethyl)-2-ethyl-3-(furan-3-yl)benzoic acid]	200 to 2000 nM
O=C(O)c1c(CS(=O)(=O)c2ccccc2)ccc2ccccc12 [2-(Benzenesulphonylmethyl)naphthalene-1-carboxylic acid]	200 to 2000 nM
COc1c(-c2ccoc2)ccc(CS(=O)(=O)c2ccccc2C)c1C(=O)O [3-(Furan-3-yl)-2-methoxy-6-(2-methyl-benzenesulphonylmethyl)benzoic acid]	200 to 2000 nM
CCc1ccc(CS(=O)(=O)c2ccccc2)c(C(=O)O)c1-c1ccnn1C [6-(Benzenesulphonylmethyl)-3-ethyl-2-(2-methyl-2H-pyrazol-3-yl)-benzoic acid]	> 2000 nM
CCCc1ccc(CS(=O)(=O)c2ccccc2)c(C(=O)O)c1OC [6-(Benzenesulphonylmethyl)-2-methoxy-3-propyl-benzoic acid]	> 2000 nM
O=C(O)c1c(CS(=O)(=O)c2ccccc2)ccc(-c2ccoc2)c1O [6-(benzenesulphonylmethyl)-3-(furan-3-yl)-2-hydroxybenzoic acid]	> 2000 nM
CCN(CC)CCCNc1ccccc1S(=O)(=O)Cc1ccc(-c2ccoc2)c(OC)c1C(=O)O [6-[2-(3-Diethylaminopropylamino)benzenesulphonylmethyl]-3-(furan-3-yl)-2-methoxybenzoic acid]	< 200 nM
COc1c(-c2ccoc2)ccc(CS(=O)(=O)c2ccc(F)cc2)c1C(=O)O [6-(4-Fluorobenzenesulphonylmethyl)-3-(furan-3-yl)-2-methoxybenzoic acid]	< 200 nM
COc1c(-c2ccoc2)ccc(CS(=O)(=O)N2C3CCCC2CC3)c1C(=O)O [6-(8-Azabicyclo[3.2.1]octane-8-ylsulphonylmethyl)-3-(furan-3-yl)-2-methoxybenzoic acid]	> 2000 nM
CCc1ccc(CS(=O)(=O)c2ccc(F)cc2)c(C(=O)O)c1OC [3-Ethyl-6-(4-fluorobenzenesulphonylmethyl)-2-methoxybenzoic acid]	200 to 2000 nM
COc1c(-c2ccoc2)ccc(CS(=O)(=O)c2cccnc2)c1C(=O)O [3-(Furan-3-yl)-2-methoxy-6-(pyridin-3-ylsulphonylmethyl)benzoic acid]	200 to 2000 nM
NC(=O)COc1c(-c2ccoc2)ccc(CS(=O)(=O)c2ccccc2)c1C(=O)O [6-(Benzenesulphonylmethyl)-2-(carbamoylmethoxy)-3-(furan-3-yl)-benzoic acid]	200 to 2000 nM
COc1c(-c2nccs2)ccc(CS(=O)(=O)c2ccccc2)c1C(=O)O [6-(Benzenesulphonylmethyl)-2-methoxy-3-(thiazol-2-yl)benzoic acid]	> 2000 nM
CCc1ccc(CS(=O)(=O)c2ccccc2)c(C(=O)O)c1-c1cc[nH]n1 [6-(Benzenesulphonylmethyl)-3-ethyl-2-(1H-pyrazol-3-yl)benzoic acid]	200 to 2000 nM
COc1c(C2CCOC2)ccc(CS(=O)(=O)C2CC3CCC2CC3)c1C(=O)O (stereo not drawn) [6-(Bicyclo[2.2.2]octane-2-ylsulphonylmethyl)-2-methoxy-3-(tetrahydrofuran-3-yl)benzoic acid]	> 2000 nM
COc1c(-c2ccns2)ccc(CS(=O)(=O)c2ccccc2)c1C(=O)O [6-(Benzenesulphonylmethyl-3-(isothiazol-5-yl)-2-methoxy-benzoic acid]	< 200 nM
COc1c(C2CC2)ccc(CS(=O)(=O)c2ccccc2)c1C(=O)O [6-(Benzenesulphonylmethyl)-3-cyclopropyl-2-methoxy-benzoic acid]	200 to 2000 nM
